Data from patent publication US10844044B2 (Vanderbilt University, priority 2018, dated 2020).
Where two headings read alike, the source gives them in different places.

What was measured:
[1] = test system: MV4:11 human cancer cell lines; test: Anti-proliferative activity, CellTiter-Glo viability assay, 7 day protocol; format: cell-based; settings: Homo sapiens, MV4-11, 168 h, MV4:11 cells, 7 day incubation, read-out: GI50 on cellular proliferation of MV4:11 human cancer cell lines
Summary of the method: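 Luminescent CellTiter-Glo readout after 7-day compound exposure of MV4:11 cells plated at 3600 cells/ml (final DMSO 0.1%). GI50 derived from three biological × three technical replicates, reported as mean ± S.E.M.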

[2] = target: WDR5 (Homo sapiens (Human), UniProt P61964); test: TR-FRET binding assay (displacement of 10mer-Thr-FAM probe from WDR5)
[3] = read-out: Ki for Inhibition of WDR5 by TR-FRET assay, TR-FRET, 10mer-Thr-FAM probe, WDR5-His tag 2 nM, pH 7.0
[4] = read-out: Ki for Inhibition of WDR5 by TR-FRET assay

| Ki [2] [nM] | SMILES | GI50 [1] [nM] | Ki [2, 3] [nM] | Ki [2, 4] [nM] |
| --- | --- | --- | --- | --- |
| – | Cc1cc([C@@H](NC(=O)c2cc(Cn3ccn(C)c3=N)cc(-c3ncccc3C(F)(F)F)c2)C2CC2)ccc1F [Example 64, (S)—N-(Cyclopropyl(4-fluoro-3-methylphenyl)methyl)-3-((2-imino-3-methyl-2,3-dihydro-1H-imidazol-1-yl)methyl)-5-(3-(trifluoromethyl)pyridin-2-yl)benzamide] | 930 | 0.59 | – |
| – | Cc1nc(F)ccc1-c1cc(Cn2ccn(C)c2=N)cc(C(=O)NCc2ccc(Cl)c(Cl)c2)c1 [Example 1, N-(3,4-Dichlorobenzyl)-3-(6-fluoro-2-methylpyridin-3-yl)-5-((2-imino-3-methyl-2,3-dihydro-1H-imidazol-1-yl)methyl)benzamide] | 300 | < 0.1 | – |
| – | Cc1cc([C@@H](NC(=O)c2cc(Cn3ccn(C)c3=N)cc(-c3cccnc3C(F)(F)F)c2F)C2CC2)ccc1F [Example 131, (S)—N-(Cyclopropyl(4-fluoro-3-methylphenyl)methyl)-2-fluoro-5-((2-imino-3-methyl-2,3-dihydro-1H-imidazol-1-yl)methyl)-3-(2-(trifluoromethyl)pyridin-3-yl)benzamide] | 140 | < 0.1 | – |
| – | Cc1ccnc(C(NC(=O)c2cc(Cn3ccn(C)c3=N)cc(-c3ncccc3C(F)(F)F)c2)C2CC2)c1 (centres unmarked) [Example 364, N-(Cyclopropyl(4-methylpyridin-2-yl)methyl)-3-((2-imino-3-methyl-2,3-dihydro-1H-imidazol-1-yl)methyl)-5-(3-(trifluoromethyl)pyridin-2-yl)benzamide] | 7800 | 4.3 | – |
| – | Cc1cc([C@@H](NC(=O)c2cc(Cn3ccn(C4CC4)c3=N)cc(-c3cn(C)nc3C(F)(F)F)c2)C2CC2)ncc1F [Example 204, (S)—N-(Cyclopropyl(5-fluoro-4-methypyridin-2-yl)methyl)-3-((3-cyclopropyl-2-imino-2,3-dihydro-1H-imidazol-1-yl)methyl)-5-(1-methyl-3-(trifluoromethyl)-1H-pyrazol-4-yl)benzamide] | < 100 | < 0.1 | – |
| – | Cc1ccnc(C(NC(=O)c2cc(Cn3ccn(C)c3=N)cc(-c3cccnc3C)c2)C2CC2)c1 (centres unmarked) [Example 37, N-(Cyclopropyl(4-methylpyridin-2-yl)methyl)-3-((2-imino-3-methyl-2,3-dihydro-1H-imidazol-1-yl)methyl)-5-(2-methylpyridin-3-yl)benzamide] | 3800 | 0.4 | – |
| – | Cc1cc([C@@H](NC(=O)c2cc(Cn3ccoc3=N)cc(-c3cn(C(C)C)nc3C(F)(F)F)c2)C2CC2)ccc1F [Example 291, (S)—N-(Cyclopropyl(4-fluoro-3-methylphenyl)methyl)-3-((2-iminooxazol-3(2H)-yl)methyl)-5-(1-isopropyl-3-(trifluromethyl)-1H-pyrazol-4-yl)benzamide] | < 100 | < 0.1 | – |
| – | Cc1cc([C@@H](NC(=O)c2cc(Cn3ccsc3=N)cc(-c3cn(C)nc3C(F)(F)F)c2)C2CC2)ccc1F [Example 321, (S)—N-(Cyclopropyl(4-fluoro-3-methylphenyl)methyl)-3-((2-iminothiazol-3(2H)-yl)methyl)-5-(1-methyl-3-(trifluoromethyl)-1H-pyrazol-4-yl)benzamide] | < 100 | < 0.1 | – |
| – | CCn1cc(-c2cc(Cn3ccn(C)c3=N)cc(C(=O)N[C@H](c3ccc(F)c(F)c3)C3CC3)c2)c(C(F)(F)F)n1 [Example 191] | 80 | < 0.1 | – |
| – | Cn1cc(-c2cc(CN3CCSC3=N)cc(C(=O)N[C@H](c3ccc(Cl)c(Cl)c3)C3CC3)c2)c(C(F)(F)F)n1 [Example 310, (S)—N-(Cyclopropyl(3,4-dichlorophenyl)methyl)-3-((2-iminothiazolidin-3-yl)methyl)-5-(1-methyl-3-(trifluoromethyl)-1H-pyrazol-4-yl)benzamide] | 170 | – | < 0.1 |
| – | CCOc1c(C(=O)N[C@H](c2ccc(F)c(C)c2)C2CC2)cc(CN2CCOC2=N)cc1-c1cn(C)nc1C(F)(F)F [Example 303, (S)—N-(Cyclopropyl(4-fluoro-3-methylphenyl)methyl)-2-ethoxy-5-((2-iminooxazolidin-3-yl)methyl)-3-(1-methyl-3-(trifluoromethyl)-1H-pyrazol-4-yl)benzamide] | < 100 | < 0.1 | – |
| – | CC(C)n1cc(-c2cc(CN3CCN(C)C3=N)cc(C(=O)N[C@H](c3ccc(F)c(F)c3)C3CC3)c2)c(C(F)(F)F)n1 [Example 216, (S)—N-(Cyclopropyl(3,4-difluorophenyl)methyl)-3-((2-imino-3-methylimidazolidin-1-yl)methyl)-5-(1-isopropyl-3-(trifluoromethyl)-1H-pyrazol-4-yl)benzamide] | < 100 | < 0.1 | – |
| – | COc1cc(CN(C)C(=O)c2cc(Cn3ccn(C)c3=N)cc(-c3c(C)ccc4[nH]ncc34)c2)cc(OC)c1 [Example 34, N-(3,5-Dimethoxybenzyl)-3-((2-imino-3-methyl-2,3-dihydro-1H-imidazol-1-yl)methyl)-N-methyl-5-(5-methyl-1H-indazol-4-yl)benzamide] | 30000 | 16 | – |
| – | Cc1cc(CNC(=O)c2cc(Cn3ccn(C)c3=N)cc(-c3cccc4[nH]nc(C)c34)c2)ccc1Cl [Example 46, N-(4-chloro-3-methylbenzyl)-3-((2-imino-3-methyl-2,3-dihydro-1H-imidazol-1-yl)methyl)-5-(3-methyl-1H-indazol-4-yl)benzamide] | 5900 | 1.3 | – |
| – | Cc1cc([C@@H](NC(=O)c2cc(CN3CCOC3=N)cc(-c3ccc(F)cc3C#N)c2)C2CC2)ccc1F [Example 282, (S)-2′-Cyano-N-(cyclopropyl(4-fluoro-3-methylphenyl)methyl)-4′-fluoro-5-((2-iminooxazolidin-3-yl)methyl)-[1,1′-biphenyl]-3-carboxamide] | 200 | 0.21 | – |
| – | Cc1cc([C@@H](NC(=O)c2cc(Cn3ccn(C)c3=N)cc(OC(F)(F)F)c2)C2CC2)ccc1F [Example 179, (S)—N-(Cyclopropyl(4=fluoro-3-methylphenyl)methyl)-3-((2-imino-3-methyl-2,3-dihydro-1H-imidazol-1-yl)methyl)-5-(trifluoromethoxy)benzamide] | 230 | < 0.1 | – |
| – | C=C(c1cc(Cn2ccn(C)c2=N)cc(C(=O)N[C@H](c2ccc(F)c(C)c2)C2CC2)c1)C(F)(F)F [Example 192, (S)—N-(cyclopropyl(4-fluoro-3-methylphenyl)methyl)-3-((2-imino-3-methyl-2,3-dihydro-1H-imidazol-1-yl)methyl)-5-(3,3,3-trifluoroprop-1-en-2-yl)benzamide] | 500 | < 0.1 | – |
| – | CCn1cc(-c2cc(Cn3ccn(C4CC4)c3=N)cc(C(=O)N[C@H](c3ccc(F)c(Cl)c3)C3CC3)c2)c(C(F)(F)F)n1 [Example 202, (S)—N-((3-Chloro-4-fluorophenyl)(cyclopropyl)methyl)-3-((3-cyclopropyl-2-imino-2,3-dihydro-1H-imidazol-1-yl)methyl)-5-(1-ethyl-3-(trifluoromethyl)-1H-pyrazol-4-yl)benzamide] | < 100 | < 0.1 | – |
| – | CCn1cc(-c2cc(Cn3ccsc3=N)cc(C(=O)N[C@H](c3ccc(F)c(C)c3)C3CC3)c2)c(C(F)(F)F)n1 [Example 320, (S)—N-(Cyclopropyl(4-fluoro-3-methylphenyl)methyl)-3-(1-ethyl-3-(trifluoromethyl)-1H-pyrazol-4-yl)-5-((2-iminothiazol-3(2H)-yl)methyl)benzamide] | < 100 | < 0.1 | – |
| – | Cc1cc([C@@H](NC(=O)c2cc(Cn3ccoc3=N)cc(-c3ccc(F)cc3C(F)F)c2)C2CC2)ccc1F [Example 274, (S)—N-(Cyclopropyl(4-fluoro-3-methylphenyl)methyl)-2′-(difluoromethyl)-4′-fluoro-5-((2-iminooxazol-3(2H)-yl)methyl)-[1,1′-biphenyl]-3-carboxamide] | < 100 | < 0.1 | – |
| – | Cc1cc([C@@H](NC(=O)c2cc(CN3CCOC3=N)cc(-c3cn(C(C)C)nc3C(F)(F)F)c2)C2CC2)ccc1F [Example 275, (S)—N-(Cyclopropyl(4-fluoro-3-methylphenyl)methyl)-3-((2iminooxazolidin-3-yl)methyl)-5-(1-isopropyl-3-(trifluoromethyl)-1H-pyrazol-4-yl)benzamide] | < 100 | < 0.1 | – |
| – | Cc1cc([C@@H](NC(=O)c2cc(Cn3ccoc3=N)cc(-c3cccnc3OC(F)F)c2)C2CC2)ccc1F [Example 261, (S)—N-(Cyclopropyl(4-fluoro-3-methylphenyl)methyl)-3-(2-(difluoromethoxy)pyridin-3-yl)-5-((2-iminooxazol-3(2H)-yl)methyl)benzamide] | 730 | 0.28 | – |
| – | Cc1ncccc1-c1cc(Cn2ccn(C)c2=N)cc(C(=O)NCc2ncc(Cl)cn2)c1 [Example 44, N-((5-Chloropyrimidin-2-yl)methyl)-3-((2-imino-3-methyl-2,3-dihydro-1H-imidazol-1-yl)methyl)-5-(2-methylpyridin-3-yl)benzamide] | 22000 | 9.2 | – |
| – | COc1cc(OC)cc(C(NC(=O)c2cc(Cn3ccn(C)c3=N)cc(-c3ncc(F)cc3C)c2)C2CC2)c1 (centres unmarked) [Example 68, N-(Cyclopropyl(3,5-dimethoxyphenyl)methyl)-3-(5-fluoro-3-methylpyridin-2-yl)-5-((2-imino-3-methyl-2,3-dihydro-1H-imidazol-1-yl)methyl)benzamide] | 2700 | – | 0.35 |
| < 0.1 | Cc1cc([C@@H](NC(=O)c2cc(Cn3ccn(C)c3=N)cc(-c3cn(C)nc3C(F)(F)F)c2)C2CC2)ccc1F [Example 125, (S)—N-(Cyclopropyl(4-fluoro-3-methylphenyl)methyl)-3-((2-imino-3-methyl-2,3-dihydro-1H-imidazol-1-yl)methyl)-5-(1-methyl-3-(trifluoromethyl)-1H-pyrazol-4-yl)benzamide] | 180 | – | – |
